Experimental data taken from patent EP0469683A1, “Derivatives of 4-amino-1-methyltetralins, their preparation and their application in therapy” (LABORATOIRES LUCIEN, Société Anonyme :, priority 1990, dated 1992).
Marks after values point to notes of the source that are not given here.

Tests used:
Type in all cases: in vivo
[1] = system: souris; test: Abdominal cramps test (writhing test), acetic acid i.p.; conditions: for résultats des tests complémentaires (crampes abdominales): other racemic diastereomer compared with the one shown in Tableau 4; for Degré de protection par rapport aux témoins: hydrochloride, 30 min before acetic acid; for Degré de protection par rapport aux témoins à 30´ / Degré de protection par rapport aux témoins à 1 h / Degré de protection par rapport aux témoins à 2 h / Degré de protection par rapport aux témoins à 4 h / Degré de protection par rapport aux témoins à 6 h: 4 mg/kg; for Degré de protection par rapport aux témoins à 30´: reading at 30 min; for Degré de protection par rapport aux témoins à 1 h: reading at 1 h; for Degré de protection par rapport aux témoins à 2 h: reading at 2 h; for Degré de protection par rapport aux témoins à 4 h: reading at 4 h; for Degré de protection par rapport aux témoins à 6 h: reading at 6 h
Protocol: Ce test, également connu sous le nom de WRITHING TEST, utilisé pour la sélection d'analgésiques/antalgiques à effet périphérique, consiste à rechercher une éventuelle protection vis-à-vis des crampes et/ou contorsions abdominales provoquées, chez la souris, par l'injection intrapéritonéale d'acide acétique.
Les composés ont été administrés sous forme de chlorhydrate par voie intrapéritonéale 30 minutes avant l'acide acétique.
Du point de vue cinétique de l'activité antalgique, des tests de crampes abdominales ont été poursuivis dans le temps avec des relevés à 30 minutes, 1 heure, 2 heures, 4 heures et 6 heures.

[2] = system: rat; test: Carrageenan-induced hind paw oedema (plethysmometer); conditions: 15 mg/kg, given 1 h before carrageenan; for % d'inhibitions de l'oedème/témoin à 3 h: 3 h after carrageenan; for % d'inhibitions de l'oedème/témoin à 4 h: 4 h after carrageenan; for % d'inhibitions de l'oedème/témoin à 5 h: 5 h after carrageenan
Description: L'activité anti-inflammatoire de composés selon l'invention a été mise en évidence par l'étude de la réduction d'une réaction inflammatoire induite par injection de carragénine sous l'aponévrose plantaire de la patte postérieure du rat (carragénine Sigma type IV, solution de 1 % dans du soluté isotonique de NaCI).
Le test utilise un appareil de mesure de volume du type "pléthysmométre" constitué d'une structure en U remplie d'eau, une branche du U étant constituée d'un cylindre destiné à recevoir la patte de l'animal (la patte de l'animal est plongée jusqu'à coïncidence de l'articulation tibio-tarsienne avec un repère de base), l'autre branche étant constituée d'une pipette graduée permettant la mesure de volume en mode différentiel.
Selon le protocole expérimental, au temps "t0" on mesure le volume de la patte de l'animal puis on administre le produit de traitement à étudier (les animaux témoins recevant le véhicule d'administration dans les mêmes conditions). Au temps TO + 1 heure, on injecte sous l'aponévrose plantaire de chaque animal 0,05 ml de la solution de carragénine. Le volume de la patte de l'animal est mesuré 3, 4 et 5 heures après injection de la carragénine.
L'activité anti-inflammatoire est calculée en pourcentage de réduction de l'oedème chez les rats traités par rapport aux rats témoins.

[3] = system: souris; test: Behavioural despair test (forced swimming, immobility time); conditions: 25 mg/kg, given 30 min before 6 min exposure to water
Description: L'activité antidépressive de composés selon l'invention a été mise en évidence par l'étude du comportement du désespoir chez la souris.
Selon le principe du test, un état dépressif est induit chez la souris en l'obligeant à nager dans un récipient cylindrique étroit d'où elle ne peut s'échapper. Après une période brève d'intense activité, la souris adopte une position immobile caractéristique, facilement identifiable. Les antidépresseurs réduisent ces moments d'immobilité.
Selon le protocole expérimental, les souris sont pré-exposées à l'eau à 25°C pendant 15 minutes, 24 heures avant le test. Pour le test on administre le composé à étudier 30 minutes avant une exposition à l'eau de 6 minutes. Le temps total d'immobilité de la 2e à la 6e minute est mesuré. Les animaux témoins reçoivent le véhicule d'administration du produit de traitement dans les mêmes conditions que les animaux traités.

[4] = system: souris; test: Acute toxicity: mortality after single intraperitoneal administration of increasing doses; conditions: mouse
Protocol: La détermination de la mortalité chez la souris est observée à la suite de l'administration unique par voie intrapéritonéale de doses croissantes de composés à tester.
La dose limite DL100 pour les composés étudiés est supérieure ou égale à 100 mg/kg. Les doses DLO et DL100 des composés 27, 32 et 36 sont rassemblées dans le tableau 2: […]

[5] = system: souris; test: Hot plate test (56 C), reaction time to thermal pain stimulus; conditions: hydrochloride, 1 h after administration
Description: Cet essai consiste à mesurer le temps d'apparition d'une réaction au stimulus thermoalgique chez la souris.
L'animal est placé sur une plaque métallique portée à une température constante de 56 C. […] Après administration d'un analgésique, le délai d'apparition du réflexe s'allonge: on obtient une élévation de réaction du seuil.
Les composés ont été administrés par voie intrapéritonéale sous forme de chlorhydrate et testés sur les animaux 1 heure après leur administration. Les résultats sont donnés sur quelques exemples dans le tableau 3 suivant un pourcentage de variation du temps de réaction moyen après traitement par rapport à avant traitement.

[6] = system: souris; test: Abdominal cramps test (writhing test), acetic acid i.p.; conditions: oral administration; for activité par voie orale: 16 mg/kg
[7] = DLO, single dose, intraperitoneal
[8] = DL100, single dose, intraperitoneal

## CC1(c2ccc(F)cc2)CCC(N2CCN(CCOC(=O)Nc3ccccc3)CC2)c2ccccc21 (stereo not drawn) [27.p (cis)]
[1]
  résultats des tests complémentaires (crampes abdominales): résultats comparables
[2]
  % d'inhibitions de l'oedème/témoin à 3 h: 35* %
  % d'inhibitions de l'oedème/témoin à 4 h: 39** %
  % d'inhibitions de l'oedème/témoin à 5 h: 43** %

## CC1(c2ccc(F)cc2)CCC(N2CCN(CCOC(=O)Nc3ccccc3)CC2)c2ccccc21 (stereo not drawn) [27.p (trans)]
[1]; 0,5 mg/kg intraperitoneal
  Degré de protection par rapport aux témoins: 58%
[1]; 0,25 mg/kg intraperitoneal
  Degré de protection par rapport aux témoins: 47%
[1]; 1 mg/kg intraperitoneal
  Degré de protection par rapport aux témoins: 70%
[1]; 2 mg/kg intraperitoneal
  Degré de protection par rapport aux témoins: 68%
[1]; 4 mg/kg intraperitoneal
  Degré de protection par rapport aux témoins: 75%
[1]
  Degré de protection par rapport aux témoins à 30´: 84***
  Degré de protection par rapport aux témoins à 1 h: 68***
  Degré de protection par rapport aux témoins à 2 h: 53**
  Degré de protection par rapport aux témoins à 4 h: 56***
  Degré de protection par rapport aux témoins à 6 h: 21
[1]; 8 mg/kg intraperitoneal
  Degré de protection par rapport aux témoins: 92%
[2]
  % d'inhibitions de l'oedème/témoin à 3 h: 40** %
  % d'inhibitions de l'oedème/témoin à 4 h: 40*** %
  % d'inhibitions de l'oedème/témoin à 5 h: 39** %
[3]
  activité antidépressive: activité antidépressive certaine

## CC1(c2ccc(F)cc2)CCC(N2CCN(CCOC(=O)Nc3ccccc3)CC2)c2ccccc21 (stereo not shown) [27.p]
[4]; [7]
  Dose limite 0 en: >200 mg/kg

## CC(=O)OCCN1CCN(C2CCC(C)(c3ccc(F)cc3)c3cc(C(C)(C)C)ccc32)CC1 (stereo not shown) [36.a]
[1]; 2 mg/kg intraperitoneal
  Degré de protection par rapport aux témoins: 52%
[1]; 4 mg/kg intraperitoneal
  Degré de protection par rapport aux témoins: 66%
[1]
  Degré de protection par rapport aux témoins à 30´: 69***
  Degré de protection par rapport aux témoins à 1 h: 82***
  Degré de protection par rapport aux témoins à 2 h: 60**
  Degré de protection par rapport aux témoins à 4 h: 58***
  Degré de protection par rapport aux témoins à 6 h: 38**
[1]; 8 mg/kg intraperitoneal
  Degré de protection par rapport aux témoins: 94%
[1]; 15 mg/kg intraperitoneal
  Degré de protection par rapport aux témoins: 85%
[5]; 15mg/kg intraperitoneal
  Variation du temps de réaction moyen en %: 35%
[4]; in vivo, ip
  Dose limite 0 en: 100 mg/kg
  Dose limite 100 en: >200 mg/kg
[6]
  activité par voie orale: actifs par voie orale

## CC(C)(C)c1ccc2c(c1)C(C)(c1ccc(F)cc1)CCC2N1CCN(CCOC(=O)Nc2cccc3ccccc23)CC1 (stereo not shown) [36.n]
[4]; [7]
  Dose limite 0 en: >200 mg/kg

## CC(C)(C)c1ccc2c(c1)C(C)(c1ccc(F)cc1)CCC2N1CCN(CCOC(=O)Nc2ccccc2)CC1 (stereo not drawn) [36.p (cis)]
[1]; 0,5 mg/kg intraperitoneal
  Degré de protection par rapport aux témoins: 61%
[1]; 1 mg/kg intraperitoneal
  Degré de protection par rapport aux témoins: 44%
[1]; 2 mg/kg intraperitoneal
  Degré de protection par rapport aux témoins: 61%
[1]; 4 mg/kg intraperitoneal
  Degré de protection par rapport aux témoins: 90%
[1]
  Degré de protection par rapport aux témoins à 30´: 89***
  Degré de protection par rapport aux témoins à 1 h: 69***
  Degré de protection par rapport aux témoins à 2 h: 68***
  Degré de protection par rapport aux témoins à 4 h: 46**
  Degré de protection par rapport aux témoins à 6 h: 24
[1]; 8 mg/kg intraperitoneal
  Degré de protection par rapport aux témoins: 93%

## CC(C)(C)c1ccc2c(c1)C(C)(c1ccc(F)cc1)CCC2N1CCN(CCOC(=O)Nc2ccccc2)CC1 (stereo not drawn) [36.p (trans)]
[1]
  résultats des tests complémentaires (crampes abdominales): résultats comparables
[5]; 25 mg/kg intraperitoneal
  Variation du temps de réaction moyen en %: 63* %

## CC(C)(C)c1ccc2c(c1)C(C)(c1ccc(F)cc1)CCC2N1CCN(CCOC(=O)Nc2ccccc2)CC1 (stereo not shown) [36.p]
[4]; [8]
  Dose limite 100 en: >200 mg/kg
[4]; [7]
  Dose limite 0 en: 100 mg/kg
[6]
  activité par voie orale: actifs par voie orale

## CC(C)(C)c1ccc2c(c1)C(C)(c1ccccc1)CCC2N1CCOCC1 (stereo not drawn) [39 (cis)]
[1]; 0,5 mg/kg intraperitoneal
  Degré de protection par rapport aux témoins: 53%
[1]; 1 mg/kg intraperitoneal
  Degré de protection par rapport aux témoins: 58%
[1]; 2 mg/kg intraperitoneal
  Degré de protection par rapport aux témoins: 54%
[1]; 4 mg/kg intraperitoneal
  Degré de protection par rapport aux témoins: 63%
[1]; 8 mg/kg intraperitoneal
  Degré de protection par rapport aux témoins: 89%

## CC(C)(C)c1ccc2c(c1)C(C)(c1ccccc1)CCC2N1CCOCC1 (stereo not drawn) [39 (trans)]
[1]
  résultats des tests complémentaires (crampes abdominales): résultats comparables
[5]; 25 mg/kg intraperitoneal
  Variation du temps de réaction moyen en %: 58%

## CC1(c2ccc(F)cc2)CCC(N2CCN(CCO)CC2)c2ccccc21 (stereo not shown) [compound 27]
[1]; 4 mg/kg intraperitoneal
  Degré de protection par rapport aux témoins: 49%
[1]; 8 mg/kg intraperitoneal
  Degré de protection par rapport aux témoins: 66%
[1]; 15 mg/kg intraperitoneal
  Degré de protection par rapport aux témoins: 92%
[1]; oral administration, 32 mg/kg
  pourcentages de protection: 37%
[1]; writhing test, intraperitoneal
  activité par rapport à l'amino-4-trifluoro-méthyl-1 tétraline correspondante: activité nettement améliorée
[5]; 15mg/kg intraperitoneal
  Variation du temps de réaction moyen en %: 29%
[4]; [8]
  Dose limite 100 en: 200 mg/kg
[4]; [7]
  Dose limite 0 en: 100 mg/kg
[4]; intraperitoneal, compared with the corresponding 4-amino-1-trifluoromethyl tetralin
  doses limites DLO et DL100 par rapport à l'amino-4-trifluorométhyl-1 tétraline correspondante: deux fois
[6]; 60 mg/kg
  pourcentages de protection: 86%

## CC(C)(C)c1ccc2c(c1)C(C)(c1ccccc1)CCC2N1CCN(CCO)CC1 (stereo not shown) [compound 32]
[1]; 8 mg/kg intraperitoneal
  Degré de protection par rapport aux témoins: 41%
[5]; 8mg/kg intraperitoneal
  Variation du temps de réaction moyen en %: 16%
[4]; in vivo, ip
  Dose limite 0 en: 25 mg/kg
  Dose limite 100 en: 100 mg/kg
